Test system: 242566-281-R-J2-PDC complex spheroid viability
Experiment: Anticancer human tumor 242566-281-R-J2-PDC patient-derived pancreatic carcinoma cell line growth inhibition [CLK]
Settings: for IC50: curve of first compound; for viability, T/C: stronger effect = lower value
Summary of the method: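 Patient-derived tumor cells grown as complex spheroids with HUVEC endothelial cells and mesenchymal stem cells, treated with drug combinations. Concentrations descend in half-log steps from near clinical Cmax, or from 10 microM if Cmax unknown.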

[1] = second compound 0.0316 µM, first compound 0.0316 µM
[2] = second compound 0.0316 µM, first compound 0.1 µM
[3] = second compound 0.0316 µM, first compound 0.316 µM
[4] = second compound 0.0316 µM, first compound 1 µM
[5] = second compound 0.0316 µM, first compound 3.16 µM
[6] = second compound 0.0316 µM, first compound 10 µM
[7] = second compound 0.1 µM, first compound 0.0316 µM
[8] = second compound 0.1 µM, first compound 0.1 µM
[9] = second compound 0.1 µM, first compound 0.316 µM
[10] = second compound 0.1 µM, first compound 1 µM
[11] = second compound 0.1 µM, first compound 3.16 µM
[12] = second compound 0.1 µM, first compound 10 µM
[13] = second compound 0.316 µM, first compound 0.0316 µM
[14] = second compound 0.316 µM, first compound 0.1 µM
[15] = second compound 0.316 µM, first compound 0.316 µM
[16] = second compound 0.316 µM, first compound 1 µM
[17] = second compound 0.316 µM, first compound 3.16 µM
[18] = second compound 0.316 µM, first compound 10 µM
[19] = second compound 1 µM, first compound 0.0316 µM
[20] = second compound 1 µM, first compound 0.1 µM
[21] = second compound 1 µM, first compound 0.316 µM
[22] = second compound 1 µM, first compound 1 µM
[23] = second compound 1 µM, first compound 3.16 µM
[24] = second compound 1 µM, first compound 10 µM
[25] = second compound 3.16 µM, first compound 0.0316 µM
[26] = second compound 3.16 µM, first compound 0.1 µM
[27] = second compound 3.16 µM, first compound 0.316 µM
[28] = second compound 3.16 µM, first compound 1 µM
[29] = second compound 3.16 µM, first compound 3.16 µM
[30] = second compound 3.16 µM, first compound 10 µM
[31] = second compound 10 µM, first compound 0.0316 µM
[32] = second compound 10 µM, first compound 0.1 µM
[33] = second compound 10 µM, first compound 0.316 µM
[34] = second compound 10 µM, first compound 1 µM
[35] = second compound 10 µM, first compound 3.16 µM
[36] = second compound 10 µM, first compound 10 µM
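Also: spheroids exposed to compounds for 7 days before readout.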
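For viability, T/C in this document: 100% = DMSO vehicle control wells.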

With COc1ccc([C@@H](O)c2cc(-c3ncnc4cc(N5CCOCC5)ccc34)c(F)cc2Cl)nn1 + CNC(=O)c1ccc(Nc2nc(OC3CCCC3)c3c(-c4ccc5nc(C)oc5c4)c[nH]c3n2)c(OC)c1 the IC50 (second compound 0.0316 µM) was greater than 10000 nM, the IC50 (second compound 0.1 µM) was greater than 10000 nM and the IC50 (second compound 0.316 µM) was greater than 10000 nM. It also gave an IC50 (second compound 1 µM) of 1910 nM, an IC50 (second compound 3.16 µM) of 129 nM and an IC50 (second compound 10 µM) of less than 31.6 nM. The viability, T/C [1] was 106%, the viability, T/C [2] was 96.5% and the viability, T/C [3] was 89.5%. It also gave a viability, T/C [4] of 141%, a viability, T/C [5] of 92.4% and a viability, T/C [6] of 66.4%. It also gave a viability, T/C [7] of 88.9%, a viability, T/C [8] of 103% and a viability, T/C [9] of 89.7%. It also gave a viability, T/C [10] of 102%, a viability, T/C [11] of 89.2% and a viability, T/C [12] of 69.9%. For the same compound, the viability, T/C [13] was 91.7%, the viability, T/C [14] was 85.7% and the viability, T/C [15] was 72%. It also gave a viability, T/C [16] of 81.1%, a viability, T/C [17] of 76.9% and a viability, T/C [18] of 55%. The viability, T/C [19] was 69.2%, the viability, T/C [20] was 62.6% and the viability, T/C [21] was 57.7%. It also gave a viability, T/C [22] of 51.6%, a viability, T/C [23] of 53.1% and a viability, T/C [24] of 36.3%. The viability, T/C [25] was 54.5%, the viability, T/C [26] was 51.9% and the viability, T/C [27] was 47.2%. For the same compound, the viability, T/C [28] was 39.9%, the viability, T/C [29] was 40.2% and the viability, T/C [30] was 33.5%. The viability, T/C [31] was 51.3%, the viability, T/C [32] was 47.5% and the viability, T/C [33] was 46.5%. For the same compound, the viability, T/C [34] was 43.2%, the viability, T/C [35] was 41.9% and the viability, T/C [36] was 32.5%.

For C=CC(=O)N1CCN(c2nc(=O)n(-c3c(C)ccnc3C(C)C)c3nc(-c4c(O)cccc4F)c(F)cc23)C(C)C1 (stereo unspecified) + CN1CCN(c2cc(C(=O)Nc3cc4cc(-c5cnn(C)c5)ccc4cn3)ccn2)CC1, the IC50 (second compound 0.0316 µM) was greater than 10000 nM, the IC50 (second compound 0.1 µM) was greater than 10000 nM and the IC50 (second compound 0.316 µM) was less than 31.6 nM. For the same compound, the IC50 (second compound 1 µM) was less than 31.6 nM, the IC50 (second compound 3.16 µM) was less than 31.6 nM and the IC50 (second compound 10 µM) was less than 31.6 nM. The viability, T/C [1] was 113%, the viability, T/C [2] was 105% and the viability, T/C [3] was 102%. The viability, T/C [4] was 117%, the viability, T/C [5] was 103% and the viability, T/C [6] was 72.9%. For the same compound, the viability, T/C [7] was 106%, the viability, T/C [8] was 94.3% and the viability, T/C [9] was 81.6%. For the same compound, the viability, T/C [10] was 109%, the viability, T/C [11] was 105% and the viability, T/C [12] was 67.5%. The viability, T/C [13] was 47.2%, the viability, T/C [14] was 47.3% and the viability, T/C [15] was 40.8%. It also gave a viability, T/C [16] of 45.2%, a viability, T/C [17] of 48.2% and a viability, T/C [18] of 23.4%. For the same compound, the viability, T/C [19] was 5.06%, the viability, T/C [20] was 5.31% and the viability, T/C [21] was 6.97%. It also gave a viability, T/C [22] of 9.26%, a viability, T/C [23] of 11.1% and a viability, T/C [24] of 6.36%. For the same compound, the viability, T/C [25] was 7.67%, the viability, T/C [26] was 8.25% and the viability, T/C [27] was 11.1%. The viability, T/C [28] was 11.7%, the viability, T/C [29] was 11.6% and the viability, T/C [30] was 8.7%. The viability, T/C [31] was 2.18%, the viability, T/C [32] was 2.58% and the viability, T/C [33] was 2.81%. For the same compound, the viability, T/C [34] was 4.46%, the viability, T/C [35] was 4.9% and the viability, T/C [36] was 2.7%.

Nc1ccccc1NC(=O)c1ccc(CNC(=O)OCc2cccnc2)cc1 + CN1CCN(c2cc(C(=O)Nc3cc4cc(-c5cnn(C)c5)ccc4cn3)ccn2)CC1 gave an IC50 (second compound 0.0316 µM) of 2690 nM, an IC50 (second compound 0.1 µM) of 1540 nM and an IC50 (second compound 0.316 µM) of less than 31.6 nM. For the same compound, the IC50 (second compound 1 µM) was less than 31.6 nM, the IC50 (second compound 3.16 µM) was less than 31.6 nM and the IC50 (second compound 10 µM) was less than 31.6 nM. For the same compound, the viability, T/C [1] was 95.9%, the viability, T/C [2] was 96.1% and the viability, T/C [3] was 84.2%. It also gave a viability, T/C [4] of 83.5%, a viability, T/C [5] of 44.2% and a viability, T/C [6] of 10.9%. For the same compound, the viability, T/C [7] was 92.5%, the viability, T/C [8] was 82.8% and the viability, T/C [9] was 70.5%. For the same compound, the viability, T/C [10] was 65.8%, the viability, T/C [11] was 31.6% and the viability, T/C [12] was 5.31%. It also gave a viability, T/C [13] of 28.3%, a viability, T/C [14] of 29.4% and a viability, T/C [15] of 28.4%. The viability, T/C [16] was 20.9%, the viability, T/C [17] was 6.85% and the viability, T/C [18] was 0.46%. The viability, T/C [19] was 4.47%, the viability, T/C [20] was 4.78% and the viability, T/C [21] was 4.55%. It also gave a viability, T/C [22] of 3.08%, a viability, T/C [23] of 2.04% and a viability, T/C [24] of 1.1%. It also gave a viability, T/C [25] of 9.27%, a viability, T/C [26] of 7.2% and a viability, T/C [27] of 7.84%. It also gave a viability, T/C [28] of 6.26%, a viability, T/C [29] of 5.4% and a viability, T/C [30] of 3.16%. For the same compound, the viability, T/C [31] was 2.19%, the viability, T/C [32] was 1.81% and the viability, T/C [33] was 1.73%. For the same compound, the viability, T/C [34] was 2.14%, the viability, T/C [35] was 1.57% and the viability, T/C [36] was 0.86%.

Source: PubChem BioAssay AID2060622 (Molecular Pharmacology Branch, DTP, NCI, 2025)
